Measurements reported in patent US20260217651A1 (priority 2022, published 2026).
Read-outs that look alike come from different tables or passages of the source.

Experiments:
[1] = tested on: SD rats; assay: animal or person; format: in vivo, rat; conditions: iv; for minimal effective dose: Rattus norvegicus, read-out: Minimal effective anesthetic dose(mg/kg); for Onset time / Righting Reflex Duration / Sedation Duration: rat, in vivo
[2] = tested on: SD rats; assay: animal or person; format: in vivo; conditions: Rattus norvegicus, iv, read-out: Minimal effective analgesic dose(mg/kg)

Compound	minimal effective dose [1] [mg/kg]	Onset time [1] [min]	Righting Reflex Duration [1] [min]	Sedation Duration [1] [min]	minimal effective dose [2] [mg/kg]
CCOC(=O)C1(c2ccc(Cl)cc2Cl)CCN(c2cc(C(C)C)c(O)c(C(C)C)c2)CC1 [Cpd-28]	20 to 40	0.73 to 1.02	2.97 to 12.00	31.98 to 218.72	20 to 40
CCOC(=O)C1(c2cccc(OC)c2)CCN(c2cc(C(C)C)c(O)c(C(C)C)c2)CC1 [Cpd-39]	10 to 20	0.73 to 1.07	7.45 to 24.00	34.33 to 39.48	10 to 20
COC(=O)N(c1ccccc1)N1CCN(c2cc(C(C)C)c(O)c(C(C)C)c2)CC1 [Cpd-45]	5 to 10	0.38 to 0.58	9.45 to 21.03	21.22 to 30.92	5 to 10
CCC(=O)N(c1ccccc1)N1CCN(c2cc(C(C)C)c(O)c(C(C)C)c2)CC1 [Cpd-46]	5 to 10	1.58	2.17	12.95	5 to 10
CCOC(=O)N(c1ccccc1)N1CCN(c2cc(C(C)C)c(O)c(C(C)C3CC3)c2)CC1 (stereo not shown) [Cpd-53]	< 5	0.47 to 1.27	2.00 to 37.20	27.75 to 167.40	5 to 10
CCOC(=O)N(c1cccc(Cl)c1)N1CCN(c2cc(C(C)C)c(O)c(C(C)C)c2)CC1 [Cpd-61]	10 to 20	0.55 to 1.25	4.15 to 41.88	89.98 to 162.23	10 to 20
CCOC(=O)N(c1cccc(OC)c1)N1CCN(c2cc(C(C)C)c(O)c(C(C)C)c2)CC1 [Cpd-63]	10 to 20	0.18 to 0.50	6.92 to 33.82	50.33 to 193.58	20 to 40
CCOC(=O)N(c1ccc(Cl)cc1)N1CCN(c2cc(C(C)C)c(O)c(C(C)C)c2)CC1 [Cpd-65]	10 to 20	0.92 to 1.17	11.30 to 16.67	101.42 to 123.97	10 to 20
CCOC(=O)N(c1ccc(C)cc1)N1CCN(c2cc(C(C)C)c(O)c(C(C)C)c2)CC1 [Cpd-66]	20 to 40	0.22	40.40	115.20	20 to 40
CCOC(=O)N(c1cccc(Cl)c1)N1CCN(c2cc(C(C)C)c(O)c([C@H](C)C3CC3)c2)CC1 [Cpd-69]	10 to 20	0.68 to 2.12	1.28 to 74.05	19.78 to 160.07	10 to 20
CCOC(=O)N(c1cccc(C)c1)N1CCN(c2cc(C(C)C)c(O)c([C@H](C)C3CC3)c2)CC1 [Cpd-70]	10 to 20	0.38 to 1.07	5.02 to 39.35	48.32 to 106.60	10 to 20
CCOC(=O)N(c1ccc(Cl)cc1)N1CCN(c2cc(C(C)C)c(O)c([C@H](C)C3CC3)c2)CC1 [Cpd-73]	10 to 20	0.83 to 1.65	8.78 to 25.28	44.83 to 119.62	20 to 40
CCOC(=O)N(c1ccc(OC)c(OC)c1)N1CCN(c2cc(C(C)C)c(O)c(C(C)C)c2)CC1 [Cpd-96]	20 to 40	0.13 to 0.75	1.32 to 43.20	86.20 to 295.93	20 to 40
CCOC(=O)N(c1ccc(SC)cc1)N1CCN(c2cc(C(C)C)c(O)c(C(C)C)c2)CC1 [Cpd-97]	5 to 10	0.20 to 0.60	5.25 to 32.28	31.60 to 83.28	10 to 20
CCCOc1ccc(N(C(=O)OCC)N2CCN(c3cc(C(C)C)c(O)c(C(C)C)c3)CC2)cc1 [Cpd-99]	10 to 20	1.03 to 1.38	25.58 to 25.87	67.73 to 88.57	10 to 20
CCOC(=O)N(c1ccc(OC(C)C)cc1)N1CCN(c2cc(C(C)C)c(O)c(C(C)C)c2)CC1 [Cpd-100]	20 to 40	0.37 to 0.95	6.65 to 26.68	62.20 to 114.60	20 to 40
CCOC(=O)N(c1ccc(OCC(C)C)cc1)N1CCN(c2cc(C(C)C)c(O)c(C(C)C)c2)CC1 [Cpd-104]	20 to 40	0.42	59.33	377.87	20 to 40
CCOC(=O)N(c1ccccc1)N1CCN(c2cc(C(C)C)c(O)c([C@@H](C)C3CC3)c2)CC1 [Cpd-105]	5 to 10	0.68 to 1.80	0.24 to 22.82	50.17 to 52.20	10 to 20
CCOC(=O)N(c1ccc(OC)cc1)N1CCN(c2cc(C(C)C)c(O)c([C@@H](C)C3CC3)c2)CC1 [Cpd-107]	5 to 10	0.42 to 1.52	0.72 to 34.8	34.37 to 73.58	10 to 20
COc1ccc(C2(C(=O)OC(C)C)CCN(c3cc(C(C)C)c(O)c(C(C)C)c3)CC2)cc1 [Cpd-123]	20 to 40	0.77	24.08	75.50	20 to 40
CCOC(=O)N(Cc1ccc(OC)cc1)N1CCN(c2cc(C(C)C)c(O)c(C(C)C)c2)CC1 [Cpd-124]	20 to 40	0.15 to 0.68	2.83 to 65.08		20 to 40
CCOC(=O)N(Cc1ccsc1)N1CCN(c2cc(C(C)C)c(O)c(C(C)C)c2)CC1 [Cpd-125]	10 to 20	1.22	6.87	53.93	10 to 20
